From EP4778933A1 (Chengdu Hyperway Pharmaceuticals Co., Ltd., priority 2023, dated 2025)
Read-outs that look alike come from different tables or passages of the source. Blank lines part the entries; values can stand above or below the compound they belong to.

Assays:
[1] = tested on: KRAS G12D-mediated ERK phosphorylation; assay: Inhibition of KRAS G12D-mediated ERK phosphorylation in AGS cells (in-cell pERK/GAPDH immunofluorescence); assay type: cell-based
Description: (§1) Day 1: AGS cells, SW480 cells, NCI H358 cells, HCT116 cells, and KP2 cells were seeded into 384-well cell culture plates and cultured overnight in a 37°C, 5% CO2 incubator.
(§2) Day 2: The compounds were added to the plates using Echo550 and incubated for 3 h in a 37°C, 5% CO2 incubator. Then, cells fixed with paraformaldehyde, permeated with methanol and blocked with a blocking solution were added. Finally, a mixed solution of primary antibodies (rabbit anti pERK, mouse anti GAPDH) was added, and the mixture was incubated overnight at 4°C.
(§3) Day 3: The mixed solution of primary antibodies was discarded, and a mixed solution of secondary antibodies (goat anti rabbit 800 CW, goat anti mouse 680 RD) was added. The resulting mixture was incubated at room temperature in the dark. Finally, the cell culture plate was washed with PBST, and then inverted for 1 minute of centrifugation. The fluorescence signal values were read with Odyssey CLx.
(§4) ERK phosphorylation was calculated according to the following formula: [formula] • Negative control: DMSO • Positive control: 10 µM Reference • IC50 value was fitted and calculated by XLFit 5.0 using the parametric formula. • Y = Bottom+(Top-Bottom)/(1+10^((LogIC50-X)*HillSlope)) • X: log value of compound concentration. • Y: average value of relative expression of p-ERK between replicate wells.

[2] = In vivo pharmacokinetic test in mice; settings: single dose 30 mg/kg, plasma
Description: Each test compound was administered orally once to female BALB/c mice for pharmacokinetic study. The test compounds were prepared on the day of administration. The oral administration solvent: 50 mM sodium citrate (pH 5.0) + 10% captisol. The oral administration was conducted in a dose of 30 mg/kg. The animals were fasted for 10-14 h before oral administration, and the feeding was resumed 4 h after administration. Pharmacokinetic samples were collected through the orbit. The collection time points were: 15 min, 30 min, 1 h, 2 h, 4 h, 6 h, 8 h and 24 h after administration. Three whole blood samples were collected at each time point, with a collection volume of about 0.2 mL, and anticoagulated with sodium heparin. After blood samples were collected, they were immediately placed on ice and centrifuged within 1 h to isolate plasma (centrifugation conditions: 8000 rpm, 1 min, 2-8°C). The collected plasma was stored in a -20°C refrigerator before analysis. The concentrations of compounds in the plasma samples were determined using an LC-MS/MS analysis method.

[3] = tested on: KRAS G12V-mediated ERK phosphorylation; assay: Inhibition of KRAS G12V-mediated ERK phosphorylation in SW480 cells; assay type: cell-based; settings: 3 h incubation, read-out: Inhibitory activity on ERK phosphorylation (IC50) SW480-G12V
Description: as §1, §2, §3, §4

[4] = AGS cells, 3 h incubation, read-out: Inhibitory activity on ERK phosphorylation (IC50) AGS-G12D
[5] = female BALB/c mice, oral, 30 mg/kg
[6] = Homo sapiens, AGS, 3 h, read-out: Inhibitory activity on ERK phosphorylation (IC50) AGS-G12D, AGS cells, 3 h incubation
[7] = Homo sapiens, AGS, 3 h, AGS cells, 3 h incubation, read-out: Inhibitory activity on ERK phosphorylation (IC50) AGS-G12D

IC50 [3]: > 1000 nM
Compound: CC1(O)COCCN(c2nc(OCC34CCCN3C(c3cc(F)c(F)c(F)c3)CC4)nc3c(F)c(-c4ccc(F)c5sc(N)c(C#N)c45)c(Cl)cc23)C1 (single isomer, unassigned) [Example 10, 2-amino-4-[6-chloro-8-fluoro-4-(6-hydroxy-6-methyl-1,4-oxazepan-4-yl)-2-({[3-(3,4,5-trifluorophenyl)-2,3,5,6,7,7a-hexahydro-1H-pyrrolizin-7a-yl]methyl}oxy)quinazolin-7-yl]-7-fluorobenzo[b]thiophene-3-carbonitrile]

IC50 [1, 7]: 380 nM
Compound: CN(C)C(=O)C1CN(c2nc(OCC34CCCN3C(c3cc(F)c(F)c(F)c3)CC4)nc3c(F)c(-c4ccc(F)c5sc(N)c(C#N)c45)c(Cl)cc23)CCCO1 (racemic) [Example 16, 4-[7-(2-amino-3-cyano-7-fluorobenzo[b]thiophen-4-yl)-6-chloro-8-fluoro-2-({[3-(3,4,5-trifluorophenyl)-2,3,5,6,7,7a-hexahydro-1H-pyrrolizin-7a-yl]methyl}oxy)quinazolin-4-yl]-N,N-dimethyl-1,4-oxazepan-2-carboxamide]

IC50 [1, 4]: 94 nM
Compound: CC1(O)COCCN(c2nc(OCC34CCCN3C(c3cc(F)c(F)c(F)c3)CC4)nc3c(F)c(-c4cccc5sc(N)c(C#N)c45)c(I)cc23)C1 (single isomer, unassigned) [Example 30, 2-amino-4-[6-iodo-8-fluoro-4-(6-hydroxy-6-methyl-1,4-oxazepan-4-yl)-2-({[3-(3,4,5-trifluorophenyl)-2,3,5,6,7,7a-hexahydro-1H-pyrrolizin-7a-yl]methyl}oxy)quinazolin-7-yl]benzo[b]thiophene-3-carbonitrile]

IC50 [1, 4]: 33 nM
AUC [2, 5]: 6017 ng·h/mL
Cmax [2, 5]: 2148 ng/mL
Compound: CC1(O)COCCN(c2nc(OCC34CCCN3C(c3cc(F)c(F)c(F)c3)CC4)nc3c(F)c(-c4cccc5sc(N)c(C#N)c45)c(Cl)cc23)C1 (single isomer, unassigned) [Example 18, 2-amino-4-[6-chloro-8-fluoro-4-(6-hydroxy-6-methyl-1,4-oxazepan-4-yl)-2-({[3-(3,4,5-trifluorophenyl)-2,3,5,6,7,7a-hexahydro-1H-pyrrolizin-7a-yl]methyl}oxy)quinazolin-7-yl]benzo[b]thiophene-3-carbonitrile]

IC50 [1, 4]: 43 nM
Compound: CC1(O)COCCN(c2nc(OCC34CCCN3C(c3cc(F)c(F)c(F)c3)CC4)nc3c(F)c(-c4cccc5sc(N)c(C#N)c45)c(Cl)cc23)C1 (single isomer, unassigned) [Example 22, 2-amino-4-[6-chloro-8-fluoro-4-(6-hydroxy-6-methyl-1,4-oxazepan-4-yl)-2-({[3-(3,4,5-trifluorophenyl)-2,3,5,6,7,7a-hexahydro-1H-pyrrolizin-7a-yl]methyl}oxy)quinazolin-7-yl]benzo[b]thiophene-3-carbonitrile]

IC50 [1, 4]: 4.2 nM
AUC [2, 5]: 9224 ng·h/mL
Cmax ([2]; female, BALB/c, mouse, po, 30 mg/kg, read-out: Cmax): 3290 ng/mL
Compound: CC1(O)COCCN(c2nc(OCC34CCCN3C(c3cc(F)c(F)c(F)c3)CC4)nc3c(F)c(-c4cccc5sc(N)c(C#N)c45)c(I)cc23)C1 (single isomer, unassigned) [Example 28, 2-amino-4-[6-iodo-8-fluoro-4-(6-hydroxy-6-methyl-1,4-oxazepan-4-yl)-2-({[3-(3,4,5-trifluorophenyl)-2,3,5,6,7,7a-hexahydro-1H-pyrrolizin-7a-yl]methyl}oxy)quinazolin-7-yl]benzo[b]thiophene-3-carbonitrile]

The next lines start with the compound.

Compound: N#Cc1c(N)sc2c(F)ccc(-c3c(Cl)cc4c(N5CCOCC5)nc(OC[C@@]56CCCN5[C@H](c5cc(F)c(F)c(F)c5)CC6)nc4c3F)c12 (relative stereo) [Example 17]
IC50 ([1]; Homo sapiens, AGS cells, 3 h incubation, read-out: Inhibitory activity on ERK phosphorylation (IC50) AGS-G12D): 41 nM
AUC ([2]; mouse, female BALB/c mice, oral, read-out: AUC): 3990 ng·h/mL
Cmax ([2]; mouse, female BALB/c mice, oral, read-out: Cmax): 1490 ng/mL

Compound: CC1(O)COCCN(c2nc(OCC34CCCN3C(c3cc(F)c(F)c(F)c3)CC4)nc3c(F)c(-c4ccc(F)c5sc(N)c(C#N)c45)c(Cl)cc23)C1 (single isomer, unassigned) [Example 9, 2-amino-4-[6-chloro-8-fluoro-4-(6-hydroxy-6-methyl-1,4-oxazepan-4-yl)-2-({[3-(3,4,5-trifluorophenyl)-2,3,5,6,7,7a-hexahydro-1H-pyrrolizin-7a-yl]methyl}oxy)quinazolin-7-yl]-7-fluorobenzo[b]thiophene-3-carbonitrile]
IC50 [1, 4]: 27 nM
AUC [2, 5]: 5181 ng·h/mL
Cmax [2, 5]: 1897 ng/mL

Compound: N#Cc1c(N)sc2c(F)ccc(-c3c(Cl)cc4c(N5CC6COCC6C5)nc(OCC56CCCN5C(c5cc(F)c(F)c(F)c5)CC6)nc4c3F)c12 (racemic) [Example 8, 4-[4-(3,3a,4,5,6,6a-hexahydro-1H-furano[4,3-c]pyrrolo-5-yl)-6-chloro-8-fluoro-2-({[3-(3,4,5-trifluorophenyl)-2,3,5,6,7,7a-hexahydro-1H-pyrrolizin-7a-yl]methyl}oxy)quinazolin-7-yl]-2-amino-7-fluorobenzo[b]thiophene-3-carbonitrile]
IC50 [1, 6]: > 1000 nM

Compound: N#Cc1c(N)sc2c(F)ccc(-c3c(Cl)cc4c(N5CCOCC(O)(CO)C5)nc(OCC56CCCN5C(c5cc(F)c(F)c(F)c5)CC6)nc4c3F)c12 (racemic) [Example 2, 2-amino-4-{6-chloro-8-fluoro-4-[6-hydroxy-6-(hydroxymethyl)-1,4-oxazepan-4-yl]-2-({[3-(3,4,5-trifluorophenyl)-2,3,5,6,7,7a-hexahydro-1H-pyrrolizin-7a-yl]methyl}oxy)quinazolin-7-yl}-7-flu orobenzo[b]thiophene-3-carbonitrile]
IC50 [1, 7]: > 1000 nM

Compound: CC1(O)COCCN(c2nc(OCC34CCCN3C(c3cc(F)c(F)c(F)c3)CC4)nc3c(F)c(-c4cccc5sc(N)c(C#N)c45)c(Br)cc23)C1 (single isomer, unassigned) [Example 27, 2-amino-4-[6-bromo-8-fluoro-4-(6-hydroxy-6-methyl-1,4-oxazepan-4-yl)-2-({[3-(3,4,5-trifluoropheny 1)-2,3,5,6,7,7a-hexahydro-1H-pyrrolizin-7a-yl]methyl}oxy)quinazolin-7-yl]benzo[b]thiophene-3-carb onitrile]
IC50 ([1]; AGS cells, 3 h incubation): 355 nM

Compound: CC1(O)CCCN(c2nc(OCC34CCCN3C(c3cc(F)c(F)c(F)c3)CC4)nc3c(F)c(-c4ccc(F)c5sc(N)c(C#N)c45)c(Cl)cc23)CC1 (racemic) [Example 6, 2-amino-4-[6-chloro-8-fluoro-4-(4-hydroxy-4-methylazepan-1-yl)-2-({[3-(3,4,5-trifluorophenyl)-2,3,5,6,7,7a-hexahydro-1H-pyrrolizin-7a-yl]methyl}oxy)quinazolin-7-yl]-7-fluorobenzo[b]thioph ene-3-carbonitrile]
IC50 [1, 7]: 787 nM

Compound: CC1(O)COCCN(c2nc(OCC34CCCN3C(c3cc(F)c(F)c(F)c3)CC4)nc3c(F)c(-c4cncc5sc(N)c(C#N)c45)c(Cl)cc23)C1 (single isomer, unassigned) [Example 37, 2-amino-4-[6-chloro-8-fluoro-4-(6-hydroxy-6-methyl-1,4-oxazepan-4-yl)-2-({[1-(3,4,5-trifluoropheny 1)octahydrocyclopenta[1,2-a][5]annulen-3a-yl]methyl}oxy)quinazolin-7-yl]thieno[2,3-c]pyridine-3-ca rbonitrile]
IC50 [1, 6]: 193 nM
